The term IC50 denotes the midpoint of a concentration-inhibition curve. Higher therefore signals weaker potency in that assay.

Experimental findings from US8124641B2, “Aminotetrahydroindazoloacetic acids” (Hoffmann-La Roche Inc., priority 2008, dated 2012) are described below.

The test addresses T1, human CRTH2 (Homo sapiens, UniProt Q9Y5Y4).
T1 construct: expressed in transfected cells
T1 sequence (Q9Y5Y4 1-395): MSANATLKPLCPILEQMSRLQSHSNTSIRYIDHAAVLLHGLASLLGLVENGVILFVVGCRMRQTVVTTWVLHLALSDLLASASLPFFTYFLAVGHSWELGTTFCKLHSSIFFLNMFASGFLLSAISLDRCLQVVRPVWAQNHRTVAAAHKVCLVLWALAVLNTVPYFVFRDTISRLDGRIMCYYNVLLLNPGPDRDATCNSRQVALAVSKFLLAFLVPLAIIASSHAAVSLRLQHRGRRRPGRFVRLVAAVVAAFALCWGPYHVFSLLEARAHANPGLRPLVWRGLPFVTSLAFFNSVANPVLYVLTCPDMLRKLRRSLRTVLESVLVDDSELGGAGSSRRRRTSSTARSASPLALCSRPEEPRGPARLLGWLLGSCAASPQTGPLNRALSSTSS
Nature of the test: Human CRTH2 Receptor Binding Assay (whole cell, [3H]ramatroban competition). The conditions noted are these: CHO-K1 cells stably expressing human CRTH2 and G-alpha16; 20 nM [3H]ramatroban; 1 hour, room temperature. From the text:
A whole cell receptor binding assay using [^3H]ramatroban as the competing radioactive ligand was employed to evaluate the compound binding activity to human CRTH2. The radioactive ligand [^3H]ramatroban was synthesized according to Sugimoto et. al. (Eur. J. Pharmacol. 524, 30-37, 2005) to a specific activity of 42 Ci/mmol.
A cell line stably expressing human CRTH2 was established by transfecting CHO-K1 cells with two mammalian expression vectors that harbored human CRTH2 and G-alpha16 cDNAs, respectively, using FuGene® 6 transfection reagent (from Roche). Stable clones expressing CRTH2 were selected by staining each clone with BM16 (BD Pharmingen™ from BD Biosciences, a division of Becton, Dickinson and Company), which is a rat monoclonal antibody to human CRTH2. The cells were maintained as monolayer cultures in Ham's F-12 medium containing 10% fetal bovine serum, 100 units/mL penicillin, 100 μg/mL streptomycin, 2 mM glutamine, 0.5 mg/mL G418 (geneticin) for CRTH2, and 0.2 mg/mL hygromycin-B (for G-alpha 16). For whole cell receptor binding assay, the monolayer cells were rinsed once with PBS (phosphate buffered saline), dissociated using ethylenediaminetetraacetate (Versene™ EDTA from Lonza Inc.), and suspended in PBS containing 10 mM MgCl2 and 0.06% BSA (bovine serum albumin) at 1.5×10^6 cells/mL.
The binding reactions (0.2 mL) were performed in 96-well plates at room temperature in PBS containing 1.5×10^5 cells, 10 mM MgCl2, 0.06% BSA, 20 nM [^3H]ramatroban, and test compound at various concentrations. After 1 hour of binding reactions, the cells were harvested on GF™/B filter microplates (microtiter plates with embedded glass fiber from PerkinElmer, Inc.) and washed 5 times with PBS using a Filtermate™ Harvester (a cell harvester that harvests and washes cells from microplates from PerkinElmer, Inc.). The radioactivities bound to the cells were determined using a microplate scintillation counter (TopCount® NXT, from PerkinElmer, Inc.) after adding 50 μL of Microscint™ 20 scintillation fluid (from PerkinElmer, Inc.) to each well of the filter plates. The radioactivity from non-specific binding was determined by replacing compound with 10 μM of 15(R)-15-methyl PGD2 (from Cayman Chemical Company) in the reaction mixtures. The radioactivity bound to the cells in the absence of compound (total binding) was determined by replacing compound with 0.25% of DMSO (dimethyl sulfoxide) in the reaction mixture. Specific binding data were obtained by subtracting the radioactivity of non-specific binding from each binding data.
The IC50 value is defined as the concentration of the tested compound that is required for 50% inhibition of total specific binding. In order to calculate the IC50 value, the percent inhibition data were determined for 7 concentrations for each compound. The percent inhibition for a compound at each concentration was calculated according to the following formula, [1−(specific binding in the presence of compound)/(total specific binding)]×100. The IC50 value was then obtained by fitting the percent inhibition data to a sigmoidal dose-response (4 parameter logistic) model in the XLfit® software Excel add-in program [from ID Business Solutions Ltd., model 205, where F(x)=(A+(B−A)/(1+((C/x)^D)))].

Consider `COc1ccc(S(=O)(=O)NC2CCCc3c2cnn3CC(=O)O)cc1C(F)(F)F` (stereo not drawn) [Example 1-15a, [4-(4-Methoxy-3-trifluoromethyl-benzenesulfonylamino)-4,5,6,7-tetrahydro-indazol-1-yl]-acetic acid], for which the IC50 was determined as 262 nM. Compound `CS(=O)(=O)c1cc(S(C)(=O)=O)cc(S(=O)(=O)N[C@@H]2CCCc3c2cnn3CC(=O)O)c1` [Example 1-16a, [(R)-4-(3,5-Bis-methanesulfonyl-benzenesulfonylamino)-4,5,6,7-tetrahydro-indazol-1-yl]-acetic acid] showed an IC50 of 5.9 nM.

Compound `Cc1ccc(S(=O)(=O)NC2CCCc3c2cnn3CC(=O)O)cc1Cl` (stereo not drawn) [Example 1-17a, [4-(3-Chloro-4-methyl-benzenesulfonylamino)-4,5,6,7-tetrahydro-indazol-1-yl]-acetic acid] gave an IC50 of 381 nM. As for `O=C(O)CCn1ncc2c1CCC[C@H]2NS(=O)(=O)c1cc(C(F)(F)F)cc(C(F)(F)F)c1` [Example 1-18a, 3-[(R)-4-(3,5-Bis-trifluoromethyl-benzenesulfonylamino)-4,5,6,7-tetrahydro-indazol-1-yl]-propionic acid], the figure is 264 nM; as for `CN([C@@H]1CCCc2c1cnn2CC(=O)O)S(=O)(=O)c1cc(C(F)(F)F)cc(C(F)(F)F)c1` [Example 2-1a, {(R)-4-[(3,5-Bis-trifluoromethyl-benzenesulfonyl)-methyl-amino]-4,5,6,7-tetrahydro-indazol-1-yl}-acetic acid], 12.1 nM. In the case of `CN([C@@H]1CCCc2c1cnn2CC(=O)O)S(=O)(=O)c1ccc(Br)cc1Cl` [Example 2-2a, {(R)-4-[(4-Bromo-2-chloro-benzenesulfonyl)-methyl-amino]-4,5,6,7-tetrahydro-indazol-1-yl}-acetic acid], the IC50 was found to be 97.8 nM.

`CN([C@@H]1CCCc2c1cnn2CC(=O)O)S(=O)(=O)c1ccc(C(F)(F)F)cc1Cl` [Example 2-3a, {(R)-4-[(2-Chloro-4-trifluoromethyl-benzenesulfonyl)-methyl-amino]-4,5,6,7-tetrahydro-indazol-1-yl}-acetic acid] yielded an IC50 of 78.6 nM. `CN([C@@H]1CCCc2c1cnn2CC(=O)O)S(=O)(=O)c1ccc(Br)cc1F` [Example 2-4a, {(R)-4-[(4-Bromo-2-fluoro-benzenesulfonyl)-methyl-amino]-4,5,6,7-tetrahydro-indazol-1-yl}-acetic acid] gave an IC50 of 253 nM. `CN([C@@H]1CCCc2c1cnn2CC(=O)O)S(=O)(=O)c1cc(Br)cc(C(F)(F)F)c1` [Example 2-5a, {(R)-4-[(3-Bromo-5-trifluoromethyl-benzenesulfonyl)-methyl-amino]-4,5,6,7-tetrahydro-indazol-1-yl}-acetic acid] displayed an IC50 of 11.2 nM. Compound `CN([C@@H]1CCCc2c1cnn2CC(=O)O)S(=O)(=O)c1cc(Br)cc(Br)c1` [Example 2-6a, {(R)-4-[(3,5-Dibromobenzenesulfonyl)-methyl-amino]-4,5,6,7-tetrahydro-indazol-1-yl}-acetic acid] gave an IC50 of 50.2 nM. In turn, `CN([C@@H]1CCCc2c1cnn2CC(=O)O)S(=O)(=O)c1cc(C(C)(C)C)cc(C(C)(C)C)c1` [Example 2-7a, {(R)-4-[(3,5-Di-tert-butyl-benzenesulfonyl)-methyl-amino]-4,5,6,7-tetrahydro-indazol-1-yl}-acetic acid] came in with an IC50 of 166 nM. As for `CN([C@@H]1CCCc2c1cnn2CCC(=O)O)S(=O)(=O)c1cc(C(F)(F)F)cc(C(F)(F)F)c1` [Example 2-8a, 3-{(R)-4-[(3,5-Bis-trifluoromethyl-benzenesulfonyl)-methyl-amino]-4,5,6,7-tetrahydro-indazol-1-yl}-propionic acid], the figure is 43.4 nM; as for `CCOc1cc(C(F)(F)F)cc(S(=O)(=O)NC2CCCc3c2cnn3CC(=O)O)c1` (stereo not drawn) [Example 3-1a, [4-(3-Ethoxy-5-trifluoromethyl-benzenesulfonylamino)-4,5,6,7-tetrahydro-indazol-1-yl]-acetic acid], 145 nM. Take `CCOc1ncc(S(=O)(=O)NC2CCCc3c2cnn3CC(=O)O)cc1Br` (stereo not drawn) [Example 3-2a, [4-(5-Bromo-6-ethoxy-pyridine-3-sulfonylamino)-4,5,6,7-tetrahydro-indazol-1-yl]-acetic acid]: the IC50 came out at 370 nM. `O=C(O)Cn1ncc2c1CCCC2NS(=O)(=O)c1cnc(OC2CCCC2)c(Br)c1` (stereo not drawn) [Example 3-3a, [4-(5-Bromo-6-cyclopentyloxy-pyridine-3-sulfonylamino)-4,5,6,7-tetrahydro-indazol-1-yl]-acetic acid]: the IC50 came out at 10.3 nM. Regarding `CC(C)Oc1cc(C(F)(F)F)cc(S(=O)(=O)NC2CCCc3c2cnn3CC(=O)O)c1` (stereo not drawn) [Example 3-4a, [4-(3-Isopropoxy-5-trifluoromethyl-benzenesulfonylamino)-4,5,6,7-tetrahydro-indazol-1-yl]-acetic acid], the IC50 is 194 nM. Then `CN([C@@H]1CCCc2c1cnn2CC(=O)O)S(=O)(=O)c1ccc(OC2CCCC2)c(Cl)c1` [Example 4-1a, {(R)-4-[(3-Chloro-4-cyclopentyloxy-benzenesulfonyl)-methyl-amino]-1-4,5,6,7-tetrahydro-indazol-1-yl}-acetic acid], with 99.2 nM; and `CN([C@@H]1CCCc2c1cnn2CC(=O)O)S(=O)(=O)c1cnc(OC2CCC2)c(Br)c1` [Example 4-2a, {(R)-4-[(5-Bromo-6-cyclobutoxy-pyridine-3-sulfonyl)-methyl-amino]-4,5,6,7-tetrahydro-indazol-1-yl}-acetic acid], with 39.1 nM; and `CC(C)Oc1ncc(S(=O)(=O)N(C)[C@@H]2CCCc3c2cnn3CC(=O)O)cc1Br` [Example 4-3a, {(R)-4-[(5-Bromo-6-isopropoxy-pyridine-3-sulfonyl)-methyl-amino]-4,5,6,7-tetrahydro-indazol-1-yl}-acetic acid], with 37.2 nM. Then `CN([C@@H]1CCCc2c1cnn2CC(=O)O)S(=O)(=O)c1cnc(OC2CCOCC2)c(Br)c1` [Example 4-4a, ((R)-4-{[5-Bromo-6-(tetrahydro-pyran-4-yloxy)-pyridine-3-sulfonyl]-methyl-amino}-4,5,6,7-tetrahydro-indazol-1-yl)-acetic acid], with 53.9 nM; and `CS(=O)(=O)c1cc(C(F)(F)F)cc(S(=O)(=O)N[C@@H]2CCCc3c2cnn3CC(=O)O)c1` [Example 5-1a, [(R)-4-(3-Methanesulfonyl-5-trifluoromethyl-benzenesulfonylamino)-4,5,6,7-tetra-hydro-indazol-1-yl]-acetic acid], with 3.1 nM; and `CN([C@@H]1CCCc2c1cnn2CC(=O)O)S(=O)(=O)c1cc(C(F)(F)F)cc(S(C)(=O)=O)c1` [Example 6-1a, {(R)-4-[(3-Methanesulfonyl-5-trifluoromethyl-benzenesulfonyl)-methyl-amino]-4,5,6,7-tetrahydro-indazol-1-yl}-acetic acid], with 2.5 nM. As for `CCS(=O)(=O)c1cc(C(F)(F)F)cc(S(=O)(=O)N[C@@H]2CCCc3c2cnn3CC(=O)O)c1` [Example 7-1a, [(R)-4-(3-Ethanesulfonyl-5-trifluoromethyl-benzenesulfonylamino)-4,5,6,7-tetrahydro-indazol-1-yl]-acetic acid], the figure is 2.6 nM. The compound `O=C(O)Cn1ncc2c1CCC[C@H]2NS(=O)(=O)c1cc(C(F)(F)F)cc(S(=O)(=O)C2CCCC2)c1` [Example 7-2a, [(R)-4-(3-Cyclopentane-sulfonyl-5-trifluoromethyl-benzenesulfonylamino)-4,5,6,7-tetrahydro-indazol-1-yl]-acetic acid] had a half-inhibitory concentration (IC50) of 2.9 nM.
